A word on the EC50: it is the concentration giving half of the maximal effect. In general, IC50 refers to the point on the concentration scale where inhibition reaches its midpoint. Lower therefore signals higher potency.

Where “and” joins values, the source holds several entries; their conditions need not be identical. Identical values can stand only once. Calls of active or inactive are those of the source.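 The calls were made as follows: active = compounds giving half or more protection of infected cells from virus-caused growth loss, again on retest; inactive = the rest.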

For the test, the system named is CEM cells HIV-1 protection, formazan growth assay. In words: NCI AIDS Antiviral Assay. Particulars: for IC50: measured here: growth of uninfected CEM cells. The method, boiled down:
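CEM (human) cells, HIV-1 infected vs uninfected, 5-point dosing, formazan growth read-out. Retest threshold 50% protection.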

In the case of `CC(=O)C1CC=C(C)CC1` (stereo unspecified), the EC50 was more than 1820 µM and the IC50 is 141 µM.

As for `O=c1c2cc3c(=O)n4c(cc(-c5ccccc5)c5cc(Cl)ccc54)nc3cc2nc2cc(-c3ccccc3)c3cc(Cl)ccc3n12`, the EC50 is more than 100 µM and the IC50 was more than 100 µM. With `O=C(NC(CO)Cc1ccc(Oc2cc(CC(CO)NC(=O)OCc3ccccc3)ccc2OC(=O)OCc2ccccc2)cc1)OCc1ccccc1` (stereo unspecified), the EC50 is more than 200 µM and the IC50 is 20.9 µM. For `O=[N+]([O-])/C(C(Cl)=C(Cl)Cl)=C(/Cl)Sc1ccccc1`, the EC50 was more than 200 µM and the IC50 stood at 1.23 µM. Turning to `COc1cc2c(c(OC)c1OC)-c1cc3c(cc1C(=O)CC(C(=O)O)(C(=O)O)C2)OCO3`, the EC50 was more than 562 µM and the IC50 was more than 562 µM. Consider `Cc1ccc2c(c1)C(=O)C1(C2)Cc2c(C)cccc2C1=O` (stereo unspecified), for which the EC50 is more than 200 µM and the IC50 is more than 200 µM.

With `CN=C1Nc2ccc(Cl)cc2C(c2ccccc2)=NN1C`, the EC50 is more than 120 µM and the IC50 stood at 93.3 µM. For `Clc1c(C(Cl)(Cl)Cl)nsc1N1CCCCC1` the same measures were more than 200 µM and 72.4 µM. For `C=C(C)C(O)C(OCC)c1c(OC)ccc2ccc(=O)oc12` (stereo unspecified) the same measures were more than 200 µM and more than 200 µM. As for `COc1ccc(-c2cc(=O)c3c(O)c(O)c(OC)cc3o2)cc1O`, the EC50 was more than 550 µM and the IC50 was 240 µM.

For the compound `CC(=O)n1c2ccc(Br)cc2c2nc3ccccc3nc21`, the EC50 was more than 200 µM and the IC50 is more than 200 µM. On to `COC(=O)CP(=O)(OCC(F)(F)F)OCC(F)(F)F`, for which the EC50 was more than 794 µM and the IC50 is 437 µM.

With `COc1cc(C2SCC(=O)N2c2ccc(-c3ccc(-n4c(-c5ccccc5)nc5ccccc5c4=O)cc3)cc2)cc(OC)c1OC` (stereo unspecified), the EC50 is more than 200 µM and the IC50 was determined as 14.8 µM.

Regarding `COc1cc(O)c(C(=O)/C=C/c2ccccc2)c(O)c1C1C=C(C)CCC1C(C)C` (stereo unspecified), the outcome was inactive. For `CC(=O)/C(=C/N1CCNC1=S)C(=O)Nc1ccc([N+](=O)[O-])cc1`, the EC50 was more than 200 µM and the IC50 is 43.7 µM. In the case of `CCOC(=O)CN(c1sc(C)c(CC)c1C(=O)OCC)S(=O)(=O)c1ccc(C)cc1`, the EC50 was more than 200 µM and the IC50 stood at 10.2 µM. For `COc1cc(CNc2nc3c(NC(C)=O)cc(C(F)(F)F)cc3nc2-c2ccccc2)cc(OC)c1OC` the same measures were more than 13.8 µM and 11.7 µM. For `C1C2CC3CC1CC(c1nn4c(C56CC7CC(CC(C7)C5)C6)nnc4s1)(C2)C3`, the EC50 is more than 200 µM and the IC50 is more than 200 µM. In the case of `Nc1ccccc1S(=O)(=O)c1ccccc1`, the result was active. Regarding `CC(=O)C1=C(C)N2C(=NC3=C(CCc4ccccc43)C2c2ccc(F)cc2)S1` (stereo unspecified), the EC50 is more than 200 µM and the IC50 stood at 178 µM.

Turning to `C[C@@](O)(/C=C/[C@H]1CC=CC(=O)O1)[C@@H](C[C@@H](O)\C=C/C=C\C=C\CO)OP(=O)(O)O`, the result was inactive. In the case of `C=C(Br)C[N+]12CN3CN(CN(C3)C1)C2`, the EC50 is more than 200 µM and the IC50 stood at 55 µM.

As for `COc1c(-c2ccccc2)oc2c(ccc3occc32)c1=O`, the EC50 is more than 95.5 µM and the IC50 is more than 95.5 µM. Consider `O=C(Cc1ccccc1)NN1C(=O)C(Cl)C1c1ccc([N+](=O)[O-])cc1` (stereo unspecified), for which the EC50 is more than 20 µM and the IC50 is more than 20 µM. As for `CN(C)c1ccc(C=Nc2ccc(SSc3ccc(N=Cc4ccc(N(C)C)cc4)cc3)cc2)cc1`, the EC50 was more than 200 µM and the IC50 was 25.1 µM. For `O=C(/C=C/c1ccc(/C=C/C(=O)c2ccc(O)cc2)cc1)c1ccc(O)cc1` the same measures were more than 200 µM and 26.9 µM. Regarding `O=NC1C(Cl)C2CC1C1COCC21` (stereo unspecified), the EC50 is more than 1230 µM and the IC50 was more than 1230 µM. Take `Nc1c(-c2ccccc2[N+](=O)[O-])nc2ccccn12`: the EC50 was more than 513 µM and the IC50 is 120 µM. Regarding `COc1ccc(/C(=N/O)C(c2ccc(OC)cc2)C2C(=O)Oc3ccccc32)cc1` (stereo unspecified), the EC50 was more than 17.8 µM and the IC50 is more than 17.8 µM. For the compound `CC1CC2C3CC(F)C4=CC(=O)C=CC4(C)C3(F)C(O)CC2(C)C1(O)C(=O)CO` (stereo unspecified), the outcome was inactive. Regarding `Cc1cccc(C(C)C)c1NC(=O)CC1C(=O)Nc2ccccc2S1(=O)=O` (stereo unspecified), the EC50 is more than 7.08 µM and the IC50 was more than 7.08 µM.

Consider `COc1cc2c(cc1OC)NCC1COc3c(ccc(OC)c3OC)C1=N2` (stereo unspecified), for which the EC50 was more than 200 µM and the IC50 worked out at 117 µM. For `CC(C)=CCC1=C(O)C(=O)C(CC=C(C)C)=C(O)C1=O`, the EC50 is more than 83.2 µM and the IC50 was determined as 43.7 µM. With `C=CN1C(=O)[C@H](Oc2ccccc2)[C@@H]1c1ccccc1`, the EC50 was more than 135 µM and the IC50 stood at 63.1 µM.

Turning to `O=C(c1ccccc1)c1nc2ccc(Cl)cc2c2c1Cc1ccccc1-2`, the EC50 is more than 2.95 µM and the IC50 was more than 2.95 µM. Turning to `COC(=O)C(=O)C(C(=O)C(=O)Nc1cccc(OC)c1)c1nc2ccc(Cl)cc2[nH]c1=O` (stereo unspecified), the EC50 was more than 204 µM and the IC50 was 191 µM. In the case of `COC(=O)C1(C)CCCC2(C)C1CCC13OCC(CC21)C1(C(C)C)OC31` (stereo unspecified), the outcome was inactive. `CN(C)CCCCC1CCN(CC(=O)N2c3ccccc3NC(=O)c3ccccc32)CC1`: the EC50 is more than 302 µM and the IC50 amounted to 155 µM.

`CSc1nc(NC2OCC(OC(C)=O)C(OC(C)=O)C2OC(C)=O)c2c(n1)OCC2=O` (stereo unspecified): the outcome was inactive. Consider `COc1cc(N=Nc2ccccc2C(=O)O)cc(/C=N\NNC(N)=S)c1O`, for which the EC50 is more than 67.6 µM and the IC50 turned out to be 32.4 µM. As for `Cc1cc2c(c3oc(=O)ccc13)[C@@H](OC(=O)C13CCC(C)(C(=O)O1)C3(C)C)[C@@H](OC(=O)C13CCC(C)(C(=O)O1)C3(C)C)C(C)(C)O2` (stereo partly specified), the EC50 is 0.38 µM and the IC50 was 2 µM. For `CC1CCc2c(sc3ncnc(N/N=C/c4ccc(Cl)c(Cl)c4)c23)C1` (stereo unspecified) the same measures were more than 25.7 µM and more than 25.7 µM. In the same order, the values of `O=C1CC2c3c(OCc4ccccc4)cc(OCc4ccccc4)cc3OC2O1` (stereo unspecified) are more than 25.7 µM and more than 25.7 µM. For `Cn1c(=O)sc2cc(C(=S)N3CCCCC3)ccc21` the same measures were more than 200 µM and 107 µM. For the compound `O=C1C2C3C=C4c5ccccc5N(c5ccccc5)C4(C2C(=O)N1Cc1ccccc1)C1C(=O)N(Cc2ccccc2)C(=O)C31` (stereo unspecified), the outcome was inactive.

With `Cn1c2ccccc2n2c(=O)c(-c3ccc(Cl)cc3)nnc12`, the EC50 was more than 200 µM and the IC50 is more than 200 µM. With `Cc1cc2c(c3oc(=O)cc(C)c13)[C@@H](OC(=O)C13CCC(C)(C(=O)O1)C3(C)C)[C@@H](OC(=O)C13CCC(C)(C(=O)O1)C3(C)C)C(C)(C)O2` (stereo partly specified), the EC50 is 0.912 µM and the IC50 was more than 200 µM. For `NC1CSc2ccccc2NC1=O` (stereo unspecified) the same measures were more than 407 µM and more than 407 µM. For `OCCN(CCO)c1nc(N2CCCCC2)c2nc(N(CCO)CCO)nc(N3CCCCC3)c2n1`, the outcome was inactive. As for `O=C(COc1cc(=O)oc2ccccc12)c1ccccc1`, the EC50 was more than 200 µM and the IC50 came to 151 µM. In the same order, the values of `N#Cc1cn(C2OC(CO)C(O)C2O)c2ncnc(N)c12` (stereo unspecified) are more than 0.2 µM and 0.00151 µM.

Turning to `CC(CCC(=O)O)CCC(=O)O`, the EC50 was more than 1450 µM and the IC50 was more than 1450 µM.

Take `CCN=c1cc2oc3cc(NCC)c(C)cc3c(-c3ccccc3C(=O)OCC)c-2cc1C`: the EC50 was more than 200 µM; the IC50 is 0.0631 µM and 0.12 µM. Take `Cc1nnc2n1N=C(c1ccc(-c3ccc([N+](=O)[O-])cc3)o1)CS2`: the EC50 is more than 5.89 µM and the IC50 is more than 5.89 µM. Take `CN1C(c2ccccc2)=CC(=O)C(O)=C(c2ccccc2)S1(=O)=O`: the EC50 is more than 200 µM and the half-inhibitory concentration (IC50) was more than 200 µM. For `COc1cc(OC)c(/C=C/c2ccc3ccccc3[n+]2[O-])c(OC)c1`, the EC50 is more than 56.2 µM and the IC50 is more than 56.2 µM.

Regarding `O=C1C(c2ccccc2)=C(c2ccccc2)C(c2ccccc2)/C1=C1\C(=O)C(c2ccccc2)=C(c2ccccc2)C1c1ccccc1` (stereo unspecified), the outcome was inactive.

As for `COC(=O)c1cc(C(=CCCCCN=[N+]=[N-])c2cc(Cl)c(OC)c(C(=O)OC)c2)cc(Cl)c1OC`, the EC50 is 19.1 µM and the IC50 was more than 200 µM. In the same order, the values of `O=C(NCCn1ccnn1)Nc1ccccc1` are more than 200 µM and more than 200 µM. Take `O=C1/C(=C/c2ccccc2)CN(C(=O)Oc2ccccc2)C/C1=C\c1ccccc1`: the result was inactive. With `CN(C)CCNc1ccc([N+](=O)[O-])c2nc3ccccc3c(N)c12`, the EC50 is more than 200 µM and the IC50 was found to be 1.95 µM. As for `COc1cc(C(SCc2ccccc2)SCc2ccccc2)ccc1O`, the EC50 is more than 200 µM and the IC50 was determined as 34.7 µM. For `CC(=O)NS(=O)(=O)c1ccc(NC(=O)c2ccccc2SSc2ccccc2[N+](=O)[O-])cc1` the same measures were 8.91 µM and 30.9 µM. In the same order, the values of `CCCCCCc1cc2cc(C(=O)Nc3nc(C45CC6CC(CC(C6)C4)C5)cs3)c(=O)oc2cc1O` are more than 100 µM and 8.51 µM.

As to `O=S(=O)(O)C(=Nc1cccc(Cc2ccccc2)c1)Nc1cccc(Cc2ccccc2)c1`, the EC50 is more than 200 µM and the half-inhibitory concentration (IC50) is 14.8 µM. For `CC(C)N(C(C)C)P(=O)(OP(=O)(c1ccc([N+](=O)[O-])cc1)N(C(C)C)C(C)C)c1ccc([N+](=O)[O-])cc1` (stereo unspecified) the same measures were more than 200 µM and 151 µM. As to `CC(C)(O)CCC(=O)[C@](C)(O)[C@H]1[C@H](O)C[C@@]2(C)[C@@H]3CC=C4[C@@H](C[C@@H](O)[C@@H](O)C4(C)C)[C@]3(C)C(=O)C[C@]12C`, the EC50 is more than 200 µM and the IC50 is more than 200 µM. As for `COC(=O)Cc1c([C@H]2[C@H](CC(=O)OC)c3ccccc3N2C(=O)C(F)(F)F)[nH]c2ccccc12`, the EC50 is more than 200 µM and the IC50 was determined as 27.5 µM.

The values above are taken from PubChem BioAssay AID179 (DTP/NCI, 2004).
